Laboratory results published in US7794934B2, “Predicting negative symptom change during drug treatment” (Centre for Addiction and Mental Health, priority 2006, dated 2010).
Like-named read-outs stand apart in the source and are kept apart here.

Assays:
[1] = system: patients with schizophrenia; conditions: cited from earlier work
NMDA receptors = conditions: Wang and Liang 1998; cited from earlier work
schizophrenic subjects = assay: Negative symptom improvement (SADSneg subscale) over six months of clozapine treatment, by GRIN2B T5988C genotype; type: in vivo, human; conditions: after six months of clozapine treatment, baseline as covariate
Procedure: Our sample consisted of 90 schizophrenic subjects treated with clozapine. The majority of the patients were Caucasian. The second most represented ethnicity was African American. The ratio of males to females was approximately 2.5:1. The overall response to clozapine treatment over six months was assessed using the Brief Psychiatric Rating Scale (BPRS) and the Schedule for Affective Disorders and Schizophrenia (SADS). The sample is composed of a group of patients from the Cleveland area (obtained from Dr. H. Y Meltzer, Case Western Reserve University), as part of a multisite coordinated clinical trial of clozapine response. Data on the specific assessment of negative symptom improvement in response to clozapine treatment were collected over a six month period (baseline minus 6 month score). Negative symptom improvement over a period of six months was assessed using the Brief Psychiatric Rating Scale subscale for negative symptoms (BPRSneg), and the Schedule for Affective Disorders and Schizophrenia subscale for negative symptoms (SADSneg).
Analysis of Covariance (ANCOVA) was performed in order to test the effect of genotype on negative symptom improvement as measured by the SADSneg subscale. The baseline score for the SADSneg, assessed before the clozapine treatment was started, was used as a covariate, in part to control for regression to the mean effects.

[2] = system: neurotoxicity induced by NMDA receptor antagonists; conditions: Farber 1993, 1996; Olney 1994; cited from earlier work
[3] = system: NMDA-receptor-mediated neurotransmission; conditions: Arvanov et al. 1997; cited from earlier work
NMDA receptor = conditions: at therapeutic levels (Lidsky et al. 1993); cited from earlier work
[4] = target: glycine binding site associated with the NMDAR complex (Homo sapiens, UniProt Q05586); conditions: cited from earlier work
[5] = system: PCP-induced social withdrawal; conditions: rats (Corbett et al. 1995); cited from earlier work
[6] = added to conventional antipsychotics

N[C@@H]1CONC1=O [D-cycloserine]
effect on negative symptoms ([1]; added to clozapine): worsening of negative symptoms | effect on negative symptoms [1, 6]: significantly improved | performance on a cognitive battery [1, 6]: did not improve

COc1cccc([C@H](O)C2CCN(CCc3ccc(F)cc3)CC2)c1OC [M100907]
prevention of PCP-induced blockade of NMDA receptors (NMDA receptors): prevented

CN1CCN(C2=Nc3cc(Cl)ccc3Nc3ccccc32)CC1 [clozapine]
SADSneg mean (mean converted change score, baseline minus 6 month score) (schizophrenic subjects; GRIN2B 5988 C C genotype): 1.3 | SADSneg mean (mean converted change score, baseline minus 6 month score) (schizophrenic subjects; GRIN2B 5988 C T genotype): 1.26 | SADSneg mean (mean converted change score, baseline minus 6 month score) (schizophrenic subjects; GRIN2B 5988 T T genotype): 1.87

CN1CCN(C2=Nc3cc(F)ccc3Cc3ccccc32)CC1 [fluperlapine]
prevention of neurotoxicity induced by NMDA receptor antagonists [2]: strongly prevented

O=C(CCCN1CCC(O)(c2ccc(Cl)cc2)CC1)c1ccc(F)cc1 [haloperidol]
enhancement of NMDA-receptor-mediated neurotransmission [3]: not | displacement of the ligand [3H]MK801 from the NMDA receptor (NMDA receptor): not | mode of action at the glycine binding site associated with the NMDAR complex ([4]; Lidsky et al. 1997): partial agonist | effect on NMDA receptor activity ([4]; in the absence of glycine (Lidsky et al. 1997)): augmented | prevention of neurotoxicity induced by NMDA receptor antagonists [2]: intermediate effectiveness | reversal of PCP-induced social withdrawal [5]: not

Cc1nc2n(c(=O)c1CCN1CCC(c3noc4cc(F)ccc34)CC1)CCCC2 [risperidone]
reversal of PCP-induced social withdrawal [5]: not

CSc1ccc2c(c1)N(CCC1CCCCN1C)c1ccccc1S2 (stereo not shown) [thioridazine]
prevention of neurotoxicity induced by NMDA receptor antagonists [2]: intermediate effectiveness
